According to patent US9708275B2, “Heterocyclic compounds and methods for their use” (Novartis AG, priority 2012, dated 2017):

Molecular target: AT2 receptor (Homo sapiens (Human), UniProt P50052)
Assay: AT2 receptor binding assay ([125I]-CGP42112A, HEK293/AT2 receptor cell membranes)
Conditions: displacement of [125I]-CGP42112A, RT 1.5 hrs
Protocol: 1. Trypsin-EDTA (for preparation of 100 mL) • Trypsin 0.25 g • 2% EDTA 2 mL • PBS 98 mL • Dissolve trypsin in 2% EDTA and PBS completely; sterilize the solution by passing through a […] membrane filter; store at 4° C.
2. DMEM medium (for preparation of 1 L) • The powder was dissolved into 950 mL of distilled water with gentle stirring until the solution becomes clear. • Add NaHCO3 1.176 g for DMEM medium. • Adjust pH of medium to 0.2-0.3 below final working pH using 1 M NaOH or 1 M HCl. Add slowly with stirring. • Dilute to 1 liter with ddH2O. • Sterilize the medium immediately by filtration. • Store at 4° C.
3. TE buffer • 20 mM Tris-HCl, pH 7.4, • 5 mM EDTA
4. Binding Assay Buffer • 50 mM Hepes, pH 7.4 • 5 mM MgCl2 • 1 mM CaCl2 • 0.2% BSA
5. Wash Buffer • 50 mM Hepes, pH 7.4 Procedures for HEK293/AT2 Receptor Transient Cell Transfection • Cells were plated into 150 mm dish at 50% density for transient transfection. Cells were ready for transfection after overnight incubation (the confluence reaches around 80%). • 75 μL Lipofectamine™2000 diluted in 6.25 mL OptiMEM I Reduced Serum Medium, was mixed gently, and incubated at room temperature for 5 minutes. 50 μg expression plasmid DNA diluted in 6.25 mL OptiMEM I Reduced Serum Medium without serum was mixed gently. • After the 5 minute incubation, the diluted DNA was combined with the diluted Lipofectamine™2000 (total volume is 12.5 mL). The mixture was mixed gently and incubated for 30 minutes at room temperature to allow the DNA-Lipofectamine™2000 complexes to form. • The 12.5 mL DNA-Lipofectamine™2000 complexes were added into the 150 mm dish and mixed gently by rocking the dish back and forth. • The cells were incubated at 37° C. with 5% CO2 for 48 hours. • Cells were collected and stored frozen at −80° C. Procedures for HEK293/AT2 Receptor Cell Membrane Preparation • Frozen HEK293/AT2 receptor (transient transfected) cells were homogenized in ice cold TE buffer for 10 s. • The homogenate was centrifuged at 25,000 g for 30 minutes. • The pellet was resuspended in ice cold tissue buffer. • Protein concentrations were determined using Bradford assay method with BSA as standard. • The membrane protein was frozen under −80° C. Compound Preparation
Solutions of all compounds were prepared by microplate liquid handling equipment such as Janus or Precision 2000. Compounds, dissolved in DMSO were stored in a Freezer. Compounds were prepared from 30 mM in 100% DMSO.
Step 1: Dose plate preparation (96 well plate)
• Add the 3 μL [30 mM] compound stock to column 1 on the plate. • Add 15 μL of 100% DMSO to column 1. • Add 10.81 μL of 100% DMSO to column 2-12. • Transfer 5 μL from column 1 into column 2 (half log dilution). • Transfer 5 μL from column 2 into column 3 (half log dilution). • Transfer 5 μL from column 3 into column 4 (half log dilution). • Transfer 5 μL from column 4 into column 5 (half log dilution). • Transfer 5 μL from column 5 into column 6 (half log dilution). • Transfer 5 μL from column 6 into column 7 (half log dilution). • Transfer 5 μL from column 7 into column 8 (half log dilution). • Transfer 5 μL from column 8 into column 9 (half log dilution). • Transfer 5 μL from column 9 into column 10 (half log dilution) • Transfer 5 μL from column 10 into column 11 (half log dilution) • Transfer 5 μL from column 11 into column 12 (half log dilution).
All the compounds were diluted using Precision 2000 microplate liquid handling equipment. The top concentration of compound was 5 mM with 100% DMSO.
Step 2: Working plate preparation (96 well plate)
• Compounds were diluted 50-fold with buffer. • 49 μL buffer was added to the well of 96 well plate. • 1 μL compound solution from dose plate was transferred to the corresponding well of working plate. • The top concentration of compound was 100 μM with 2% DMSO. Step 3: Assay plate preparation (96 well plate)
15 μL of compound solution was transferred from each well of working plate to the well of assay plate by Janus. […]

Sequence of AT2 receptor (P50052 whole entry, species assumed): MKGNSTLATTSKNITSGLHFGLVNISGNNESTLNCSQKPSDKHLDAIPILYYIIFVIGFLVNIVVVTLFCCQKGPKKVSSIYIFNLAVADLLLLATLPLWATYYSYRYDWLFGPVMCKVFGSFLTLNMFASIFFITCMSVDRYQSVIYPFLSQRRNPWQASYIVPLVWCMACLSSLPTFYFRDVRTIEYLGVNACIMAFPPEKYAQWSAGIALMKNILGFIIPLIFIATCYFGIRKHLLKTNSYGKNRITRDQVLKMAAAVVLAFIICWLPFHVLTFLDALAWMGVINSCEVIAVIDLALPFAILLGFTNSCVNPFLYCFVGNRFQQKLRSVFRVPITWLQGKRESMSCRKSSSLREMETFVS

| Structure (SMILES) | IC50 [nM] |
| --- | --- |
| O=C(O)[C@@H]1CN(Cc2ccccc2)CCN1C(=O)C(c1ccccc1)c1ccccc1 [Compound 5, (S)-4-benzyl-1-(2,2-diphenylacetyl)piperazine-2-carboxylic acid] | 383 |
| O=C(O)[C@@H]1CN(CCCc2ccccc2)CCN1C(=O)C(c1ccccc1)c1ccccc1 [Compound 10, (S)-1-(2,2-diphenylacetyl)-4-(3-phenylpropyl)piperazine-2-carboxylic acid] | 517 |
| O=C(O)[C@@H]1CN(c2cc(-c3ccccc3)n(-c3ccccc3)n2)CCN1C(=O)C(c1ccccc1)c1ccccc1 [Compound 6, (S)-4-(1,5-diphenyl-1H-pyrazol-3-yl)-1-(2,2-diphenylacetyl)-piperazine-2-carboxylic acid] | 3040 |
| O=C(O)[C@@H]1CN(C/C=C/c2ccccc2)CCN1C(=O)C(c1ccccc1)c1ccccc1 [Compound 9, (S)-4-cinnamyl-1-(2,2-diphenylacetyl)piperazine-2-carboxylic acid] | 4100 |
| O=C(O)[C@@H]1CN(CCc2ccccc2)CCN1C(=O)C(c1ccccc1)c1ccccc1 [Compound 8, (S)-1-(2,2-diphenylacetyl)-4-phenethylpiperazine-2-carboxylic acid] | 1270 |
| O=C(O)[C@@H]1CN(c2ccccc2)CCN1C(=O)C(c1ccccc1)c1ccccc1 [Compound 4, (S)-1-(2,2-diphenylacetyl)-4-phenylpiperazine-2-carboxylic acid] | 408 |
| O=C(O)[C@@H]1CN(CCC#Cc2ccccc2)CCN1C(=O)C(c1ccccc1)c1ccccc1 [Compound 26, (S)-1-(2,2-diphenylacetyl)-4-(4-phenylbut-3-yn-1-yl)piperazine-2-carboxylic acid] | 1320 |
| O=C(O)[C@@H]1CN(CC#Cc2ccccc2)CCN1C(=O)C(c1ccccc1)c1ccccc1 [Compound 24, (S)-1-(2,2-diphenylacetyl)-4-(3-phenylprop-2-yn-1-yl)piperazine-2-carboxylic acid] | 4160 |

Other lines, results leading:

| IC50 [nM] | Structure (SMILES) |
| --- | --- |
| 155 | Cc1cc(N2CCN(C(=O)C(c3ccccc3)c3ccccc3)[C@H](C(=O)O)C2)n(-c2ccccc2)n1 [Compound 7, (3)-1-(2,2-diphenylacetyl)-4-(3-methyl-1-phenyl-1H-pyrazol-5-yl)piperazine-2-carboxylic acid] |
| 40.3 | Cc1cc(N2CCN(C(=O)C(c3ccccc3)c3ccccc3)[C@H](C(=O)O)C2)n(Cc2ccccc2)n1 [Compound 16, (S)-4-(1-benzyl-3-methyl-1H-pyrazol-5-yl)-1-(2,2-diphenylacetyl)piperazine-2-carboxylic acid] |
| 93.8 | O=C(O)[C@@H]1CN(c2cc(C(F)(F)F)nn2Cc2ccccc2)CCN1C(=O)C(c1ccccc1)c1ccccc1 [Compound 23, (S)-4-(1-benzyl-3-(-trifluoromethyl)-1H-pyrazol-5-yl)-1-(2,2-diphenylacetyl)piperazine-2-carboxylic acid] |
